Measured values as given in patent US9938278B2, “FXR (NR1H4) modulating compounds” (Gilead Sciences, Inc., priority 2014, dated 2018).

Biological target: T1, human FXR alpha ligand binding domain (Homo sapiens, UniProt Q96RI1)
T1 construct: made in house; host or cells: E. coli BL21 (DE3), vector pDEST15
T1 sequence (Q96RI1 187-472 isoform Q96RI1-2): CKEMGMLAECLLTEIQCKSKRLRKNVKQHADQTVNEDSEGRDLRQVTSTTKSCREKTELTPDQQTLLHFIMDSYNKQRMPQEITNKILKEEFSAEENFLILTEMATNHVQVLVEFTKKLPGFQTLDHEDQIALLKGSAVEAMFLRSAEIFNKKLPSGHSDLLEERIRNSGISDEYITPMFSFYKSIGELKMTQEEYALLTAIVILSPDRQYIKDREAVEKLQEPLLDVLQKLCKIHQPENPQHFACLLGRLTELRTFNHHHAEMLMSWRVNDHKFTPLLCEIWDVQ
Assay: FRET Activity Assay (ligand mediated cofactor peptide interaction)
Type: biochemical
Settings: LANCE time-resolved FRET; GST-FXR-LBD with biotinylated SRC-1 peptide (676-700); read-out: agonistic potential EC50
Protocol: Assays FRET Activity Assay Determination of a ligand mediated cofactor peptide interaction to quantify ligand binding to the nuclear receptor FXR was performed as follows: Preparation of human FXR alpha ligand binding domain: The human FXRalpha LBD was expressed in E. coli strain BL21 (DE3) as an N-terminally GST tagged fusion protein. The DNA encoding the FXR ligand binding domain was cloned into vector pDEST15 (Invitrogen). Expression was under control of an IPTG inducible T7 promoter. The amino acid boundaries of the ligand binding domain were amino acids 187-472 of Database entry NM_005123 (RefSeq). Expression and purification of the FXR-LBD: An overnight preculture of a transformed E. coli strain was diluted 1:20 in LB-Ampicillin medium and grown at 30° C. to an optical density of OD600=0.4-0.6. Gene expression was then induced by addition of 0.5 mM IPTG. […] The protein was analysed by SDS-Page.
The method measures the ability of putative ligands to modulate the interaction between the purified bacterial expressed FXR ligand binding domain (LBD) and a synthetic biotinylated peptide based on residues 676-700 of SRC-1 (LCD2, 676-700). […] The ligand binding domain (LBD) of FXR was expressed as fusion protein with GST in BL-21 cells using the vector pDEST15. […] The LANCE signal was detected by a Perkin Elmer VICTOR2VTM Multilabel Counter. […]

- EC50: < 25 nM
SMILES: CC(C)n1nc(C(=O)O)cc1N1CCC(O)(c2ccc(OCc3c(-c4c(Cl)cccc4Cl)noc3C3CC3)cc2Cl)CC1 [Example 1, 5-(4-(2-Chloro-4-((5-cyclopropyl-3-(2,6-dichlorophenyl)isoxazol-4-yl)methoxy)phenyl)-4-hydroxypiperidin-1-yl)-1-isopropyl-1H-pyrazole-3-carboxylic Acid]
